In US8889676B2, “3-ureidoisoquinolin-8-yl derivatives” (Actelion Pharmaceuticals Ltd., priority 2011, dated 2014):
Values after ≈ are worked out from the molar mass of the structure shown.

These compounds were tested on S. pneumoniae ATCC 49619 (assay: Minimal inhibitory concentration (MIC) by broth microdilution (CLSI M7-A7)). Settings: Streptococcus pneumoniae, ATCC49619; cation-adjusted Mueller Hinton Broth supplemented with 3% (v/v) lysed horse blood; microdilution method.
Type: cell-based, Streptococcus pneumoniae
How it was run: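 Broth microdilution per CLSI M7-A7 in cation-adjusted Mueller-Hinton broth with 3% (v/v) lysed horse blood for S. pneumoniae. MIC in mg/l.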

| Compound | MIC |
| --- | --- |
| CCNC(=O)Nc1cc2c(-c3ccnc(OC)c3)ccc(CNC(=O)OCCOC)c2cn1 [Example 117, [3-(3-ethyl-ureido)-5-(2-methoxy-pyridin-4-yl)-isoquinolin-8-ylmethyl]-carbamic acid 2-methoxy-ethyl ester] | 1 µg/mL (≈ 2.21 µM) |
| CCNC(=O)Nc1cc2c(-c3ccnc(F)c3)ccc(CNC(=O)OCCOC)c2cn1 [Example 118, [3-(3-ethyl-ureido)-5-(2-fluoro-pyridin-4-yl)-isoquinolin-8-ylmethyl]-carbamic acid 2-methoxy-ethyl ester] | 0.5 µg/mL (≈ 1.13 µM) |
| CCNC(=O)Nc1cc2c(-c3ccnc(C)c3)ccc(CNC(=O)OCCOC)c2cn1 [Example 119, [3-(3-ethyl-ureido)-5-(2-methyl-pyridin-4-yl)-isoquinolin-8-ylmethyl]-carbamic acid 2-methoxy-ethyl ester] | 0.5 µg/mL (≈ 1.14 µM) |
| CCNC(=O)Nc1cc2c(-c3ccnc(C#N)c3)ccc(CNC(=O)OCCOC)c2cn1 [Example 120, [5-(2-cyano-pyridin-4-yl)-3-(3-ethyl-ureido)-isoquinolin-8-ylmethyl]-carbamic acid 2-methoxy-ethyl ester] | 1 µg/mL (≈ 2.23 µM) |
| CCNC(=O)Nc1cc2c(-c3ccncc3C)ccc(CNC(=O)OCCOC)c2cn1 [Example 121, [3-(3-ethyl-ureido)-5-(3-methyl-pyridin-4-yl)-isoquinolin-8-ylmethyl]-carbamic acid 2-methoxy-ethyl ester] | 1 µg/mL (≈ 2.29 µM) |
| CCNC(=O)Nc1cc2c(-c3ccnc(CO)c3)ccc(CNC(=O)OCCOC)c2cn1 [Example 122, [3-(3-ethyl-ureido)-5-(2-hydroxymethyl-pyridin-4-yl)-isoquinolin-8-ylmethyl]-carbamic acid 2-methoxy-ethyl ester] | 4 µg/mL (≈ 8.82 µM) |
| CCNC(=O)Nc1cc2c(-c3ccnnc3)ccc(CNC(=O)OC(C)(C)C)c2cn1 [Example 124, [3-(3-ethyl-ureido)-5-pyridazin-4-yl-isoquinolin-8-ylmethyl]-carbamic acid tert-butyl ester] | 0.5 µg/mL (≈ 1.18 µM) |
| C#CCOC(=O)NCc1ccc(-c2cccnc2)c2cc(NC(=O)NCC)ncc12.Cl [Example 125, [3-(3-ethyl-ureido)-5-pyridin-3-yl-isoquinolin-8-ylmethyl]-carbamic acid prop-2-ynyl ester hydrochloride] | 1 µg/mL |
| C#CCOC(=O)NCc1ccc(-c2ccncc2C)c2cc(NC(=O)NCC)ncc12 [Example 126, [3-(3-ethyl-ureido)-5-(3-methyl-pyridin-4-yl)-isoquinolin-8-ylmethyl]-carbamic acid prop-2-ynyl ester] | 1 µg/mL (≈ 2.4 µM) |
| C#CCOC(=O)NCc1ccc(-c2ccnnc2)c2cc(NC(=O)NCC)ncc12 [Example 127, [3-(3-ethyl-ureido)-5-pyridazin-4-yl-isoquinolin-8-ylmethyl]-carbamic acid prop-2-ynyl ester] | 8 µg/mL (≈ 19.8 µM) |
| C#CCOC(=O)NCc1ccc(-c2ccnc(C#N)c2)c2cc(NC(=O)NCC)ncc12 [Example 128, [5-(2-cyano-pyridin-4-yl)-3-(3-ethyl-ureido)-isoquinolin-8-ylmethyl]-carbamic acid prop-2-ynyl ester] | 1 µg/mL (≈ 2.33 µM) |
| C#CC(=O)NCc1ccc(-c2ccnnc2)c2cc(NC(=O)NCC)ncc12 [Example 129, propynoic acid [3-(3-ethyl-ureido)-5-pyridazin-4-yl-isoquinolin-8-ylmethyl]-amide] | 0.5 µg/mL (≈ 1.34 µM) |
| CCNC(=O)Nc1cc2c(-c3ccncc3)ccc(CNC(=O)CCC3CC3)c2cn1 [Example 130, 3-cyclopropyl-N-[3-(3-ethyl-ureido)-5-pyridin-4-yl-isoquinolin-8-ylmethyl]-propionamide] | 0.5 µg/mL (≈ 1.2 µM) |
| C#CCOC(=O)NCc1ccc(-c2ccc(N)nc2)c2cc(NC(=O)NCC)ncc12.Cl [Example 131, [5-(6-amino-pyridin-3-yl)-3-(3-ethyl-ureido)-isoquinolin-8-ylmethyl]-carbamic acid prop-2-ynyl ester hydrochloride] | 0.5 µg/mL |
| C#CCOC(=O)NCc1ccc(-c2cccc(CNC(C)=O)c2)c2cc(NC(=O)NCC)ncc12.Cl [Example 132, {5-[3-(acetylamino-methyl)-phenyl]-3-(3-ethyl-ureido)-isoquinolin-8-ylmethyl}-carbamic acid prop-2-ynyl ester hydrochloride] | 4 µg/mL |
| C#CCOC(=O)NCc1ccc(-c2cccc(O)c2)c2cc(NC(=O)NCC)ncc12.Cl [Example 133, [3-(3-ethyl-ureido)-5-(3-hydroxy-phenyl)-isoquinolin-8-ylmethyl]-carbamic acid prop-2-ynyl ester hydrochloride] | 0.5 µg/mL |
| C#CCOC(=O)NCc1ccc(-c2cccc(CC(=O)O)c2)c2cc(NC(=O)NCC)ncc12.Cl [Example 135, {3-[3-(3-ethyl-ureido)-8-(prop-2-ynyloxycarbonylamino-methyl)-isoquinolin-5-yl]-phenyl}-acetic acid hydrochloride] | 4 µg/mL |

| Compound | MIC |
| --- | --- |
| C#CCOC(=O)NCc1ccc(-c2cccc(C(N)=O)c2)c2cc(NC(=O)NCC)ncc12.Cl [Example 136, [5-(3-carbamoyl-phenyl)-3-(3-ethyl-ureido)-isoquinolin-8-ylmethyl]-carbamic acid prop-2-ynyl ester hydrochloride] | 2 µg/mL |
| C#CCOC(=O)NCc1ccc(-c2ccc(C(=O)O)cc2)c2cc(NC(=O)NCC)ncc12.Cl [Example 137, 4-[3-(3-ethyl-ureido)-8-(prop-2-ynyloxycarbonylamino-methyl)-isoquinolin-5-yl]-benzoic acid hydrochloride] | 0.25 µg/mL |
| C#CCOC(=O)NCc1ccc(-c2ccc(O)cc2)c2cc(NC(=O)NCC)ncc12.Cl [Example 138, [3-(3-ethyl-ureido)-5-(4-hydroxy-phenyl)-isoquinolin-8-ylmethyl]-carbamic acid prop-2-ynyl ester hydrochloride] | 0.5 µg/mL |
| C#CCOC(=O)NCc1ccc(-c2ccccc2O)c2cc(NC(=O)NCC)ncc12.Cl [Example 139, [3-(3-ethyl-ureido)-5-(2-hydroxy-phenyl)-isoquinolin-8-ylmethyl]-carbamic acid prop-2-ynyl ester hydrochloride] | 1 µg/mL |
| C#CCOC(=O)NCc1ccc(-c2cncnc2)c2cc(NC(=O)NCC)ncc12.Cl [Example 140, [3-(3-ethyl-ureido)-5-pyrimidin-5-yl-isoquinolin-8-ylmethyl]-carbamic acid prop-2-ynyl ester hydrochloride] | 1 µg/mL |
| C#CCOC(=O)NCc1ccc(-c2ccc(C(N)=O)cc2)c2cc(NC(=O)NCC)ncc12.Cl [Example 141, [5-(4-carbamoyl-phenyl)-3-(3-ethyl-ureido)-isoquinolin-8-ylmethyl]-carbamic acid prop-2-ynyl ester hydrochloride] | 0.25 µg/mL |
| C#CCOC(=O)NCc1ccc(-c2ccc(CO)nc2)c2cc(NC(=O)NCC)ncc12.Cl [Example 142, [3-(3-ethyl-ureido)-5-(6-hydroxymethyl-pyridin-3-yl)-isoquinolin-8-ylmethyl]-carbamic acid prop-2-ynyl ester hydrochloride] | 1 µg/mL |
| C#CCOC(=O)NCc1ccc(-c2ccc(CO)cc2)c2cc(NC(=O)NCC)ncc12.Cl [Example 143, [3-(3-ethyl-ureido)-5-(4-hydroxymethyl-phenyl)-isoquinolin-8-ylmethyl]-carbamic acid prop-2-ynyl ester hydrochloride] | 0.5 µg/mL |
| C#CCOC(=O)NCc1ccc(-c2ccnc(N)c2)c2cc(NC(=O)NCC)ncc12.Cl [Example 144, [5-(2-amino-pyridin-4-yl)-3-(3-ethyl-ureido)-isoquinolin-8-ylmethyl]-carbamic acid prop-2-ynyl ester hydrochloride] | 0.5 µg/mL |
| CCNC(=O)Nc1cc2c(-c3ccncc3)ccc(CNC(=O)CCCN3CCOCC3)c2cn1 [Example 147, N-[3-(3-ethyl-ureido)-5-pyridin-4-yl-isoquinolin-8-ylmethyl]-4-morpholin-4-yl-butyramide] | 4 µg/mL (≈ 8.39 µM) |
| CCNC(=O)Nc1cc2c(Cl)ccc(CNC(=O)OCCCN3CCOCC3)c2cn1 [Example 148, [5-chloro-3-(3-ethyl-ureido)-isoquinolin-8-ylmethyl]-carbamic acid 3-morpholin-4-yl-propyl ester] | 4 µg/mL (≈ 8.89 µM) |
| CCNC(=O)Nc1cc2c(F)ccc(CNC(=O)OCCCN3CCOCC3)c2cn1 [Example 149, [3-(3-ethyl-ureido)-5-fluoro-isoquinolin-8-ylmethyl]-carbamic acid 3-morpholin-4-yl-propyl ester] | 4 µg/mL (≈ 9.23 µM) |
| C#CCOC(=O)NCc1ccc(F)c2cc(NC(=O)NCC)ncc12 [Example 150, [3-(3-ethyl-ureido)-5-fluoro-isoquinolin-8-ylmethyl]-carbamic acid prop-2-ynyl ester] | 1 µg/mL (≈ 2.9 µM) |
| CCNC(=O)Nc1cc2c(F)ccc(CNC(=O)OCCOC)c2cn1 [Example 151, [3-(3-ethyl-ureido)-5-fluoro-isoquinolin-8-ylmethyl]-carbamic acid 2-methoxy-ethyl ester] | 2 µg/mL (≈ 5.49 µM) |
| CCNC(=O)Nc1cc2c(-c3ccncc3)ccc(CNC(=O)OCCc3cnn[nH]3)c2cn1 [Example 152, [3-(3-ethyl-ureido)-5-pyridin-4-yl-isoquinolin-8-ylmethyl]-carbamic acid 2-(3H-[1,2,3]triazol-4-yl)-ethyl ester] | 1 µg/mL (≈ 2.17 µM) |
| CCNC(=O)Nc1cc2c(-c3ccnc(C)c3)ccc(CNC(C)=O)c2cn1 [Example 153, N-[3-(3-ethyl-ureido)-5-(2-methyl-pyridin-4-yl)-isoquinolin-8-ylmethyl]-acetamide] | 1 µg/mL (≈ 2.65 µM) |
| CCNC(=O)Nc1cc2c(-c3ccnc(C)c3)ccc(CNC(=O)C3CC3)c2cn1 [Example 154, cyclopropanecarboxylic acid [3-(3-ethyl-ureido)-5-(2-methyl-pyridin-4-yl)-isoquinolin-8-ylmethyl]-amide] | 0.5 µg/mL (≈ 1.24 µM) |

Same assay, conditions: cation-adjusted Mueller Hinton Broth supplemented with 3% (v/v) lysed horse blood; microdilution method

| Compound | MIC for S. pneumoniae ATCC 49619 |
| --- | --- |
| CCNC(=O)Nc1cc2c(-c3ccnc(CN4CCOCC4)c3)ccc(CNC(=O)OCCOC)c2cn1 [Example 123, {3-(3-ethyl-ureido)-5-[(2-morpholin-4-ylmethyl)-pyridin-4-yl]-isoquinolin-8-ylmethyl}-carbamic acid 2-methoxy-ethyl ester] | 8 mg/L |
